Assay [1] addresses CRBN/DDB1 (Homo sapiens (Human), UniProt Q96SW2). The assay can be described thus: HTRF binding assay to CRBN/DDB1. The settings on record: read-out: CRBN HTRF IC50. Here is the method: The binding potency was determined using HTRF assay technology (Perkin Elmer). Compounds were serially diluted in DMSO and 0.2 μL volume was transferred to white 384-well plate.
Assay [2] deals with T1, ER (Homo sapiens (Human), UniProt P03372). The assay can be described thus: In-cell western (ICW) ER degradation assay in MCF-7 cells. Type of assay: cell-based. As to conditions: MCF7, 16 hrs; for DC50: ER degradation; for MCF7 Dmax %: maximal ER degradation; for Dmax: MCF7, maximal ER degradation. As to the method:
(§1) ERa degradative activity of compounds can be assessed in MCF-7 and T47D Cells. MCF-7 and T47D cell are seeded and are subsequently treated with the compounds at certain concentrations (e.g., 0.02 to 300 nM). DMSO can be used as vehicle control. Cells are fixed and are blocked with Intercept (PBS) Blocking Buffer (e.g., Li-COR, Odyssey Blocking Buffer), and are stained with ER (e.g., 1:500, Cell signaling) primary antibody for overnight at cold room. Secondary Antibody (e.g., IRDye 800CW Goat anti-Rabbit IgG) and CellTag 700 Stain are added in Intercept (PBS) Blocking Buffer. Finally, cell plate is placed in incubator to dry. Image and signal are captured on Odyssey® DLx Imaging System.
(§2) Day 3: After 16 hrs of compounds treatment, cells were fixed by 4% PFA and permeabilized with elution buffer (0.1% Triton X-100 in 1% PBS Solution). Subsequently, cells were blocked with Intercept (PBS) Blocking Buffer (Li-COR, Odyssey Blocking Buffer), and were stained with ER (1:500, Cell signaling) primary antibody for overnight at cold room.
(§3) Day 4: Remove the buffer, add IRDye 800CW Goat anti-Rabbit IgG Secondary Antibody (1:2000) and CellTag 700 Stain (1:500) in Intercept (PBS) Blocking Buffer. Finally, cell plate is placed in incubator to dry. Image and signal were captured on Odyssey® DLx Imaging System.

Assay [3] deals with T1, ER. The assay can be described thus: In-cell western (ICW) ER degradation assay in T47D cells. The settings on record: 16 hrs; for DC50: ER degradation; for Dmax: maximal ER degradation. Type of assay: cell-based. As to the method:
as §1, §2, §3

For orientation: IC50 means the point on the concentration scale where inhibition reaches its midpoint. The DC50 is the midpoint of the concentration-degradation curve. For orientation: Dmax means the greatest extent of degradation seen. Low values mean shallow degradation, high ones deep degradation.

T1 sequence (P03372 whole entry): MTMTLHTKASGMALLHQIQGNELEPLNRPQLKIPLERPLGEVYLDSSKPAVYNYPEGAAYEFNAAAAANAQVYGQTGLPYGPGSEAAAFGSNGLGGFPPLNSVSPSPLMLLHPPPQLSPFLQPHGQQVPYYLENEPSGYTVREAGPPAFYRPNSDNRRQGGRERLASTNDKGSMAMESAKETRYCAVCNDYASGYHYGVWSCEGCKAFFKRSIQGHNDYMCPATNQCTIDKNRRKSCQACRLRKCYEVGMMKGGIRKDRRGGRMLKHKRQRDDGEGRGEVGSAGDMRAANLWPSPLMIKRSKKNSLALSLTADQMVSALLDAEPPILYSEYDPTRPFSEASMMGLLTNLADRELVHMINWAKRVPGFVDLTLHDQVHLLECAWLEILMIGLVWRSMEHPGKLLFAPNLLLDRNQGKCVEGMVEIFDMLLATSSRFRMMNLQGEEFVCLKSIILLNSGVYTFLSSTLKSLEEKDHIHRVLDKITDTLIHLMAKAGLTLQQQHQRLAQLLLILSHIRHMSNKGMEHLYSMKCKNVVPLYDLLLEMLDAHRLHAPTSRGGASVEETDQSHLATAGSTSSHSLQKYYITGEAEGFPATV
Sequence of CRBN/DDB1 (Q96SW2 whole entry): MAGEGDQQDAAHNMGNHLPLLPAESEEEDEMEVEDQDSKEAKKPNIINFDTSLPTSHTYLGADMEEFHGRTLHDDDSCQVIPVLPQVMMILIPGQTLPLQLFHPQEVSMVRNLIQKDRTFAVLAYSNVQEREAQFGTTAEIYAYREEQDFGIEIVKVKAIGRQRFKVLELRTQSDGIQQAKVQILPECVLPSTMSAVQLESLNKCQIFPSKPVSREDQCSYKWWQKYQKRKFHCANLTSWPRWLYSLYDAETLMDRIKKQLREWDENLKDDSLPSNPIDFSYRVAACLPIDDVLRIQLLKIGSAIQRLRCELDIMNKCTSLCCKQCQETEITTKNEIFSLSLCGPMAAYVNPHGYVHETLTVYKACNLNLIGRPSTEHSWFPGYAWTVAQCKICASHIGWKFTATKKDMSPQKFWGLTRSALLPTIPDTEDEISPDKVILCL
Sequence of CRBN/DDB1 (Q16531 whole entry partner): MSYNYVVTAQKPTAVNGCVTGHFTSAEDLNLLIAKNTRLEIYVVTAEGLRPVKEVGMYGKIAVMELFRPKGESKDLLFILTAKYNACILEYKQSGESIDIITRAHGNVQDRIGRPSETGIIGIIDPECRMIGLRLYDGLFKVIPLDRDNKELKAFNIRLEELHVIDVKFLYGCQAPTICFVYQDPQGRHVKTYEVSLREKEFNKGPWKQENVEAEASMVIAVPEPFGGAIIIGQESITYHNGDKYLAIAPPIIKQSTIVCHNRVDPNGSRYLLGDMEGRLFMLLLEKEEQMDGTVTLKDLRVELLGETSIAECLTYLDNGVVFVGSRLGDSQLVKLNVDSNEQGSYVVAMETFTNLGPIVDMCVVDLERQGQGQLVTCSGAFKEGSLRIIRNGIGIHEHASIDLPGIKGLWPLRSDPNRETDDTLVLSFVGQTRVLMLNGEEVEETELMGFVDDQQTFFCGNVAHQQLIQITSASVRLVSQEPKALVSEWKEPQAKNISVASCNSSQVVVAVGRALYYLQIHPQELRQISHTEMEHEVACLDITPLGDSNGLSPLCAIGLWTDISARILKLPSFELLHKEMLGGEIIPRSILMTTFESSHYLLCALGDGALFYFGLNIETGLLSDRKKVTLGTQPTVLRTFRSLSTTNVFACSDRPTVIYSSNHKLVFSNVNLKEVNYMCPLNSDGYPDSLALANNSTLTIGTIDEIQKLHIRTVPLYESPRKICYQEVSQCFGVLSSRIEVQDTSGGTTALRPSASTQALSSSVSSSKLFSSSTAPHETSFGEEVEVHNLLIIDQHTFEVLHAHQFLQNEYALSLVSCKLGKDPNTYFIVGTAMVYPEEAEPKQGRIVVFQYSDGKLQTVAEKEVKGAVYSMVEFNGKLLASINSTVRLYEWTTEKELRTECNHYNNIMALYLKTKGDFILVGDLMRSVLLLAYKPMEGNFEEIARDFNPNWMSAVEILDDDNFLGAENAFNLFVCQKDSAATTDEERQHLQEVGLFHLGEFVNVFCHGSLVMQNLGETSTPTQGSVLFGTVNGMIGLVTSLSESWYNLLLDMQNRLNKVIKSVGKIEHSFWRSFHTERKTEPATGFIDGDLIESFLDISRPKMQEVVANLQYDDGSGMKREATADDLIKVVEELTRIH

For `O=C1CC[C@H](N2Cc3c(ccc4c3OC[C@H]3CN(CC5CC6(CCN(c7ccc([C@@H]8c9ccc(O)cc9OC[C@@H]8c8ccccc8)cc7)CC6)C5)CCN43)C2=O)C(=O)N1` (single isomer, unassigned) [Compound A37], in assay [1], the IC50 was under 50 nM. In assay [2], the 50% degradation concentration (DC50) was 1 to 10 nM and the “MCF7 Dmax %” value is listed as “C (“C”: 25%-50%)”.

Turning to `COc1nc(C(=O)NC2CCC(=O)NC2=O)ccc1N1CCN(CC2CCN(c3ccc([C@H]4c5ccc(O)cc5OC[C@H]4c4ccccc4)cc3F)CC2)CC1` (single isomer, unassigned) [Compound A102], the IC50 in assay [1] is 500 to 5000 nM. In assay [2], this compound came in with a DC50 of under 1 nM and a maximal degradation (Dmax) of 50 to 75%.

In the case of `O=C1CCC(N2Cc3cc4c(cc3C2=O)CN(C(=O)C2CCN(C3CCN(c5ccc([C@H]6c7ccc(O)cc7OC[C@H]6c6ccccc6)cc5)CC3)CC2)C4)C(=O)N1` (single isomer, unassigned) [Compound A80], in assay [3], the half-maximal degradation concentration (DC50) is 10 to 100 nM and the Dmax was in the range of 50 to 75%. Moreover, the IC50 in assay [1] fell in the range of 500 to 5000 nM.

As to `O=C1CCC(N2Cc3c(ccc4c3OC[C@@H]3CN(CC5CCN(c6ccc([C@@H]7c8ccc(O)cc8OC[C@@H]7c7ccccc7)cc6F)CC5)CCN43)C2=O)C(=O)N1` (single isomer, unassigned) [Compound A6], the IC50 in assay [1] was in the range of 50 to 500 nM. In assay [2], the half-maximal degradation concentration (DC50) was 1 to 10 nM and the Dmax lay within 50 to 75%.

For `O=C1CCC(Nc2ccc3c(c2)OC[C@H]2CN(CC4CC5(CCN(c6ccc([C@@H]7c8ccc(O)cc8OC[C@@H]7c7ccccc7)cc6)CC5)C4)CCN32)C(=O)N1` (stereo partly drawn) [Compound A94, 3-(((R)-3-((7-(4-((3S,4R)-7-hydroxy-3-phenylchroman-4-yl)phenyl)-7-azaspiro[3.5]nonan-2-yl)methyl)-1,2,3,4,4a,5-hexahydrobenzo[b]pyrazino[1,2-d][1,4]oxazin-8-yl)amino)piperidine-2,6-dione], in assay [3], the DC50 was 1 to 10 nM and the Dmax is 50 to 75%. Also, in assay [1], the IC50 was in the range of 500 to 5000 nM.

In assay [3], `COc1nc(C(=O)NC2CCC(=O)NC2=O)ccc1N1CCN(CC2CC3(CCN(c4ccc([C@H]5c6ccc(O)cc6OC[C@H]5c5ccccc5)cc4)CC3)C2)CC1` (single isomer, unassigned) [Compound A97] displayed a DC50 of under 1 nM and a maximal degradation (Dmax) of 25 to 50%. The IC50 in assay [1] lay within 500 to 5000 nM.

Take “2-(2,6-dioxopiperidin-3-yl)-6-(2-(9-(4-((3R,4S)-7-hydroxy-3-phenylchroman-4-yl)phenyl)-3,9-diazaspiro[5.5]undecan-3-yl)acetyl)-6,7-dihydropyrrolo[3,4-flisoindole-1,3(2H,5H)-dione [Compound A43]”: the IC50 in assay [1] was over 5000 nM. In assay [2], the half-maximal degradation concentration (DC50) was over 100 nM and the “MCF7 Dmax %” value is “D (“D”; <25%)”.

For `O=C1CCC(N2Cc3cc4c(cc3C2=O)CN(C(=O)CN2CCC3(CC2)CCN(c2ccc([C@@H]5c6ccc(O)cc6OC[C@@H]5c5ccccc5)cc2)CC3)C4)C(=O)N1` (single isomer, unassigned) [Compound A42], in assay [1], the concentration for half-maximal inhibition (IC50) was in the range of 50 to 500 nM. In assay [2], this compound yielded a DC50 of over 100 nM and a Dmax of under 25%.

As for `O=C1CCC(N2Cc3cc4c(cc3C2=O)CN(C(=O)CN2CC3(CCN(c5ccc([C@H]6c7ccc(O)cc7OC[C@H]6c6ccccc6)cc5)CC3)C2)C4)C(=O)N1` (single isomer, unassigned) [Compound A45], the IC50 in assay [1] was in the range of 50 to 500 nM. For the same compound, in assay [2], the DC50 is over 100 nM and the “MCF7 Dmax %” value was “D (“D”; <25%)”.

In the case of `O=C1CCC(N2Cc3cc4c(cc3C2=O)OC[C@@H]2CN(CC3CC5(CCN(c6ccc([C@H]7c8ccc(O)cc8OC[C@H]7c7ccccc7)cc6)CC5)C3)CCN42)C(=O)N1` (single isomer, unassigned) [Compound A27, 3-((S)-3-((7-(4-((3R,4S)-7-hydroxy-3-phenylchroman-4-yl)phenyl)-7-azaspiro[3.5]nonan-2-yl)methyl)-8-oxo-1,2,3,4,4a,5,8,10-octahydro-9H-pyrazino[1′,2′:4,5][1,4]oxazino[2,3-f]isoindol-9-yl)piperidine-2,6-dione], the IC50 in assay [1] was in the range of 500 to 5000 nM. In addition, in assay [2], the DC50 was 1 to 10 nM.

As to `O=C1CCC(N2Cc3c(ccc4c3OC[C@H]3CN(CC5CCN(c6ccc([C@@H]7c8ccc(O)cc8OC[C@@H]7c7ccccc7)cc6F)CC5)CCN43)C2=O)C(=O)N1` (single isomer, unassigned) [Compound A9], in assay [1], the IC50 fell in the range of 50 to 500 nM. This compound also came in with a DC50 in assay [2] of 1 to 10 nM.

With `O=C1CCC(N2Cc3c(ccc4c3OC[C@H]3CN(CC5CCN(c6ncc([C@@H]7c8ccc(O)cc8OC[C@@H]7c7ccccc7)cn6)CC5)CCN43)C2=O)C(=O)N1` (single isomer, unassigned) [Compound A36], the IC50 in assay [1] was in the range of 50 to 500 nM. Further, in assay [2], the DC50 fell in the range of 10 to 100 nM and the Dmax fell in the range of 25 to 50%.

In assay [3], `O=C1CCN(c2ccc(N3CCC(CN4CC5(CCN(c6ccc([C@@H]7c8ccc(O)cc8OC[C@@H]7c7ccccc7)cc6)CC5)C4)CC3)cc2)C(=O)N1` (single isomer, unassigned) [Compound A87] gave a DC50 of 1 to 10 nM and a Dmax of 25 to 50%. Besides, the 50% inhibitory concentration (IC50) in assay [1] was over 5000 nM.

In the case of `O=C1CCC(NC(=O)c2ccc(C3CCN(CC4CCN(c5ccc([C@H]6c7ccc(O)cc7OC[C@H]6c6ccccc6)cc5F)CC4)CC3)cn2)C(=O)N1` (single isomer, unassigned) [Compound A101], in assay [3], the DC50 was under 1 nM and the maximal degradation (Dmax) was under 25%. Besides, the IC50 in assay [1] is over 5000 nM.

Consider `Cc1nn(C2CCC(=O)NC2=O)c2ccc(N3CCN(CC4CCN(c5ccc([C@@H]6c7ccc(O)cc7OC[C@@H]6c6ccccc6)cc5F)CC4)CC3)cc12` (single isomer, unassigned) [Compound A14], for which, in assay [1], the concentration for half-maximal inhibition (IC50) was 500 to 5000 nM. In assay [2], this compound yielded a DC50 of 1 to 10 nM and a maximal degradation (Dmax) of 25 to 50%.

As to `O=C1CCC(N2Cc3c(ccc4c3OC[C@H]3CN(CC5CCN(c6ccc([C@@H]7c8ccc(O)cc8OC[C@@H]7c7ccccc7)cc6)CC5)CCN43)C2=O)C(=O)N1` (single isomer, unassigned) [Compound A8], the IC50 in assay [1] fell in the range of 50 to 500 nM. This compound also came in with a 50% degradation concentration (DC50) in assay [2] of 1 to 10 nM.

Take `O=C1CCC(N2Cc3c(ccc4c3OC[C@@H]3CN(CC5CCN(c6ccc([C@@H]7c8ccc(O)cc8OC[C@@H]7c7ccccc7)cc6)CC5)CCN43)C2=O)C(=O)N1` (single isomer, unassigned) [Compound A7]: the IC50 in assay [1] lay in the range of 50 to 500 nM. In assay [2], the DC50 is 1 to 10 nM and the greatest degradation seen (Dmax) lay within 50 to 75%.

Turning to `O=C1CCN(c2ccc(N3CCN(CC4CC5(CCN(c6ccc([C@@H]7c8ccc(O)cc8OC[C@@H]7c7ccccc7)cc6)CC5)C4)CC3)cc2)C(=O)N1` (single isomer, unassigned) [Compound A83], in assay [3], the half-maximal degradation concentration (DC50) is over 100 nM and the maximal degradation (Dmax) is under 25%. Further, the IC50 in assay [1] is over 5000 nM.

As to `Cc1nn(C2CCC(=O)NC2=O)c2ccc(N3CCN(CC4CC5(CCN(c6ccc([C@H]7c8ccc(O)cc8OC[C@H]7c7ccccc7)cc6)CC5)C4)CC3)cc12` (single isomer, unassigned) [Compound A17], the IC50 in assay [1] lay within 50 to 500 nM. In assay [2], this compound gave a DC50 of under 1 nM and a maximal degradation (Dmax) of 50 to 75%.

Consider `O=C1CCC(N2Cc3cc4c(cc3C2=O)CN(C(=O)CN2CCC3(CC2)CN(c2ccc([C@H]5c6ccc(O)cc6OC[C@H]5c5ccccc5)cc2)C3)C4)C(=O)N1` (stereo partly drawn) [Compound A48, 3-(6-(2-(2-(4-((3R,4S)-7-hydroxy-3-phenylchroman-4-yl)phenyl)-2,7-diazaspiro[3.5]nonan-7-yl)acetyl)-1-oxo-3,5,6,7-tetrahydropyrrolo[3,4-f]isoindol-2(1H)-yl)piperidine-2,6-dione], for which the 50% inhibitory concentration (IC50) in assay [1] lay within 50 to 500 nM. In assay [2], the 50% degradation concentration (DC50) is over 100 nM and the greatest degradation seen (Dmax) is under 25%.

Regarding `O=C1CCC(N2C(=O)c3cc4c(cc3C2=O)CN(C(=O)CN2CCC3(CC2)CN(c2ccc([C@@H]5c6ccc(O)cc6OC[C@@H]5c5ccccc5)cc2)C3)C4)C(=O)N1` (stereo partly drawn) [Compound A47, 2-(2,6-dioxopiperidin-3-yl)-6-(2-(2-(4-((3S,4R)-7-hydroxy-3-phenylchroman-4-yl)phenyl)-2,7-diazaspiro[3.5]nonan-7-yl)acetyl)-6,7-dihydropyrrolo[3,4-f]isoindole-1,3(2H,5H)-dione], the IC50 in assay [1] is 500 to 5000 nM. In assay [2], this compound displayed a half-maximal degradation concentration (DC50) of 10 to 100 nM and a maximal degradation (Dmax) of 25 to 50%.

For the compound `O=C1CCC(N2C(=O)c3cc4c(cc3C2=O)CN(CC(=O)N2CCC3(CC2)CN(c2ccc([C@H]5c6ccc(O)cc6OC[C@H]5c5ccccc5)cc2)C3)C4)C(=O)N1` (single isomer, unassigned) [Compound A38], in assay [1], the 50% inhibitory concentration (IC50) lay in the range of 50 to 500 nM. In assay [2], this compound came in with a DC50 of 10 to 100 nM and a Dmax of 25 to 50%.

With `O=C1CCC(N2C(=O)c3cc4c(cc3C2=O)CN(CC(=O)N2CC3(CCN(c5ccc([C@H]6c7ccc(O)cc7OC[C@H]6c6ccccc6)cc5)CC3)C2)C4)C(=O)N1` (single isomer, unassigned) [Compound A39], the 50% inhibitory concentration (IC50) in assay [1] is 50 to 500 nM. In assay [2], this compound returned a half-maximal degradation concentration (DC50) of over 100 nM and a Dmax of under 25%.
